Laboratory results reported in US12178838B2, “Synthetic neuromodulatory peptides” (Lactocore, Inc., priority 2019, dated 2024).
Where two headings read alike, the source gives them in different places. Residues, ends and D or L forms follow the SMILES beside them.

Columns and labels:
[1] = system: benzodiazepine site of GABAA receptors
Procedure: The incubation mixture (final volume 0.5 ml) contained 50 μl of […]

[2] = set-up: species or system rats; settings: rat, in vivo
Procedure: Tritium-labeled peptide FQSE (SEQ ID NO:10) was administered intranasally (i.n.) at a dose of 500 μg/kg diluted in saline. The administered sample contained 2000 pKi of tritium-labeled peptide [^3H] FQSE (SEQ ID NO:10). In 6 minutes after the administration, test samples of brain, blood and urine were obtained.
The study was carried out using tritium-labeled peptide FQSE (SEQ ID NO:10). For that, rats were administered with 2000 pKi [^3H] FQSE (SEQ ID NO:10) in dose 500 μg/kg (about 150 μg). The solutions administered to animals were prepared using saline solution. The volume of the solution for intranasal administration was 20 μl for rats.
In rat experiments, product FQSE (SEQ ID NO:10) was administered as a single, bolus, intranasal injection. Preliminarily, rats were anesthetized with chloral hydrate (300 mg/kg), and in 10 min, product FQSE (SEQ ID NO:10) was administered in volume 20 μl, in dose 500 μg/kg which contained 2000 pKi of labeled peptide [^3H]FQSE (SEQ ID NO:10). Rats were decapitated in 6 minutes after the product administration. […]
The quantitative analysis of peptides was performed with HPLC on column Kromasil C18, 4×150 mm in methanol gradient (0-40%), presence of 0.08% TEA and 0.02% HBA (heptafluorobutyric acid). The fractions containing peptide FQSE (SEQ ID NO:10) were collected, and their radioactivity was determined with liquid scintillation counting.

[3] = biological target: hippocampal NMDA receptors; test: Radioligand analysis of NMDA receptors with [3H] (+) MK-801; assay type: binding, rat; settings: [3H] (+) MK-801, room temperature, 2 hours; read-out: IC50 of displacement curve
Source text: Hippocampal plasma membranes were isolated using modified methods (Zhou et al. (1997). (2S,4R)-4-methylglutamic acid (SYM 2081): a selective, high-affinity ligand for kainate receptors. J. Pharmacol. Exp. Ther., 280(1), 422-427, LePage et al. (2005). Differential binding properties of [^3H] dextrorphan and [^3H] MK-801 in heterologously expressed NMDA receptors. Neuropharmacol., 49(1), 1-16). After decapitation, the tissue was immediately frozen in liquid nitrogen and stored in a low-temperature refrigerator at −80° C. On the day of the experiment, the hippocampi were homogenized “Teflon-glass” in a Potter homogenizer in 10 volumes of buffer No. 1 (5 mM HEPES, 4.5 mM Tris, 0.32 M Sucrose, pH 7.6). The homogenate was diluted with 50 volumes of buffer No. 2 (5 mM HEPES, 4.5 mM Tris, pH 7.6) and centrifuged at 1000 g for 10 minutes on an Optima L-70K ultracentrifuge (Beckman Coulter). The supernatant was […] and centrifuged again at 25000 g for 20 minutes. To increase the protein yield, this operation was performed twice. The resulting precipitate was resuspended in 50 volumes of buffer No. 2 and centrifuged at 8000 g for 20 minutes. […]
The IC50 value with respect to the binding of labeled ligands was determined by adding 50 μl of the test compounds to the incubation medium at final concentrations of 10^−10-10^−4 M. The volume of the incubation mixture was 500 μl. […]

| Structure (SMILES) | Specific binding of [3H]-Flunitrazepam, relative to control levels ([1]; Diazepam 10^−6M + FQSE 10^−4M, 25 min pre-incubation + 30 min incubation, 4° C.) [%] | Specific binding of [3H]-Flunitrazepam, relative to control levels ([1]; Diazepam 10^−6M + FQSE 10^−4M, 25 min pre-incubation + 30 min incubation, 24° C.) [%] | Specific binding of [3H]-Flunitrazepam, relative to control levels ([1]; Diazepam 10^−6M + FQSE 10^−4M, 30 min incubation, 4° C.) [%] | Specific binding of [3H]-Flunitrazepam, relative to control levels ([1]; Diazepam 10^−6M + FQSE 10^−4M, 30 min incubation, 24° C.) [%] | Specific binding of [3H]-Flunitrazepam, relative to control levels ([1]; Diazepam 10^−6M + FQSE 10^−5M, 25 min pre-incubation + 30 min incubation, 4° C.) [%] | Specific binding of [3H]-Flunitrazepam, relative to control levels ([1]; Diazepam 10^−6M + FQSE 10^−5M, 25 min pre-incubation + 30 min incubation, 24° C.) [%] | Specific binding of [3H]-Flunitrazepam, relative to control levels ([1]; Diazepam 10^−6M + FQSE 10^−5M, 30 min incubation, 4° C.) [%] | Specific binding of [3H]-Flunitrazepam, relative to control levels ([1]; Diazepam 10^−6M + FQSE 10^−5M, 30 min incubation, 24° C.) [%] | blood-brain barrier penetration [2] | IC50 [3] [nM] |
| --- | --- | --- | --- | --- | --- | --- | --- | --- | --- | --- |
| NC(=O)CC[C@H](NC(=O)[C@@H](N)Cc1ccccc1)C(=O)N[C@@H](CO)C(=O)N[C@@H](CCC(=O)O)C(=O)O [FQSE] (H-FQSE-OH) | 101.07 | 100.58 | 100.27 | 100.95 | 101.07 | 99.78 | 100.04 | 100.70 | can penetrate blood-brain barrier |  |
| C[C@]12N[C@H](Cc3ccccc31)c1ccccc12 [MK-801] |  |  |  |  |  |  |  |  |  | 7 |
